# Test results as given in patent US20260262643A1, “HERBICIDAL BENZOXAZINES” (FMC CORPORATION, priority 2022, published 2026).
# Tests used:
# [1] = system: wheat; assay: Test C preemergence; type: in vivo, Triticum aestivum; details: 0 to 100 scale (0 no effect, 100 complete control)
# How it was run: (§1)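 Seeds in loam–sand blend received preemergence directed soil spray of test chemicals in non-phytotoxic solvent with surfactant; postemergence treatment was applied at one- to two-leaf stage (2–10 cm). After 10 days in greenhouse, injury rated visually versus untreated controls, 0 (no effect) to 100 (complete control).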
# [2] = system: oat, wild; assay: Test C preemergence; type: in vivo, Avena fatua; details: 0 to 100 scale (0 no effect, 100 complete control)
# How it was run: as §1
# [3] = system: rice; assay: Test D flooded paddy test; type: in vivo, Oryza sativa; details: 250 g ai/ha, applied to paddy water, visual rating after 13 to 14 days, scale 0 to 100 (0 no effect, 100 complete control)
# How it was run: (§2)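 Plants grown to the 2-leaf stage; pots flooded to 3 cm above soil at treatment and held at that depth throughout. Test compounds applied directly to the paddy water. After 13 to 14 days in a greenhouse, response was rated visually versus controls on a 0 (no effect) to 100 (complete control) scale.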
# [4] = system: horseweed; assay: Test C postemergence; type: in vivo, Erigeron canadensis; details: 10 days
# How it was run: as §1
# [5] = system: galium; assay: Test C postemergence; type: in vivo, Galium aparine; details: 10 days
# How it was run: as §1
# [6] = system: soybean; assay: Test C preemergence; type: in vivo, Glycine max; details: 0 to 100 scale (0 no effect, 100 complete control)
# How it was run: as §1
# [7] = system: kochia; assay: Test C preemergence; type: in vivo, Bassia scoparia; details: 0 to 100 scale (0 no effect, 100 complete control)
# How it was run: as §1
# [8] = system: green foxtail; assay: Test C postemergence; type: in vivo, Setaria viridis; details: 10 days
# How it was run: as §1
# [9] = system: soybean; assay: Test C postemergence; type: in vivo, Glycine max; details: 10 days
# How it was run: as §1
# [10] = system: ragweed; assay: Test C preemergence; type: in vivo, Ambrosia artemisiifolia; details: 0 to 100 scale (0 no effect, 100 complete control)
# How it was run: as §1
# [11] = system: blackgrass; assay: Test C postemergence; type: in vivo, Alopecurus myosuroides; details: Alopecurus myosuroides, post-emergence, 240 h, 10 days, read-out: Plant response rating, Blackgrass
# How it was run: as §1
# [12] = system: ryegrass, Italian; assay: Test C postemergence; type: in vivo, Lolium multiflorum; details: 10 days
# How it was run: as §1
# [13] = system: corn; assay: Test C preemergence; type: in vivo, Zea mays; details: 0 to 100 scale (0 no effect, 100 complete control)
# How it was run: as §1
# [14] = system: sedge, umbrella; assay: Test D flooded paddy test; type: in vivo, Cyperus difformis; details: 250 g ai/ha, applied to paddy water, visual rating after 13 to 14 days, scale 0 to 100 (0 no effect, 100 complete control)
# How it was run: as §2
# [15] = system: ryegrass, Italian; assay: Test C preemergence; type: in vivo, Lolium multiflorum; details: 0 to 100 scale (0 no effect, 100 complete control)
# How it was run: as §1
# [16] = system: ducksalad; assay: Test D flooded paddy test; type: in vivo, Heteranthera limosa; details: 250 g ai/ha, applied to paddy water, visual rating after 13 to 14 days, scale 0 to 100 (0 no effect, 100 complete control)
# How it was run: as §2
# [17] = system: ragweed; assay: Test C postemergence; type: in vivo, Ambrosia artemisiifolia; details: 10 days
# How it was run: as §1
# [18] = system: barnyardgrass; assay: Test C postemergence; type: in vivo, Echinochloa crusgalli; details: 10 days
# How it was run: as §1
# [19] = system: kochia; assay: Test C postemergence; type: in vivo, Bassia scoparia; details: 10 days
# How it was run: as §1
# [20] = system: barnyardgrass; assay: Test D flooded paddy test; type: in vivo, Echinochloa crus-galli; details: 250 g ai/ha, applied to paddy water, visual rating after 13 to 14 days, scale 0 to 100 (0 no effect, 100 complete control)
# How it was run: as §2
# [21] = system: pigweed, palmer; assay: Test C postemergence; type: in vivo, Amaranthus palmeri; details: 10 days
# How it was run: as §1
# [22] = system: corn; assay: Test C postemergence; type: in vivo, Zea mays; details: Zea mays, post-emergence, 240 h, 10 days
# How it was run: as §1
# [23] = system: green foxtail; assay: Test C preemergence; type: in vivo, Setaria viridis; details: 0 to 100 scale (0 no effect, 100 complete control)
# How it was run: as §1
# [24] = system: barnyardgrass; assay: Test C preemergence; type: in vivo, Echinochloa crusgalli; details: 0 to 100 scale (0 no effect, 100 complete control)
# How it was run: as §1
# [25] = system: oat, wild; assay: Test C postemergence; type: in vivo, Avena fatua; details: 10 days
# How it was run: as §1
# [26] = system: wheat; assay: Test C postemergence; type: in vivo, Triticum aestivum; details: 10 days
# How it was run: as §1
# [27] = system: pigweed, palmer; assay: Test C preemergence; type: in vivo, Amaranthus palmeri; details: 0 to 100 scale (0 no effect, 100 complete control)
# How it was run: as §1
# [28] = system: blackgrass; assay: Test C preemergence; type: in vivo, Alopecurus myosuroides; details: 0 to 100 scale (0 no effect, 100 complete control)
# How it was run: as §1
# [29] = Preemergence, 500 g ai/ha, visual rating after 10 days
# [30] = Test C, preemergence, 125 g ai/ha
# [31] = 125 g ai/ha, postemergence, 0 to 100 scale, 0 no effect, 100 complete control
# [32] = Postemergence, 500 g ai/ha, visual 0 to 100 scale (0 no effect, 100 complete control)
# [33] = 125 g ai/ha, postemergence, 0 to 100 scale (0 no effect, 100 complete control)
smiles,measurement,setting,value
"CC(C)c1ncn(-c2cc3c(c(C(=O)N4C[C@H](C)Oc5c(Cl)cccc54)c2)OCO3)n1 [Compound 258, [(2S)-8-chloro-2-methyl-2,3-dihydro-1,4-benzoxazin-4-yl]-[6-(3-isopropyl-1,2,4-triazol-1-yl)-1,3-benzodioxol-4-yl]methanone]","Plant response rating, Wheat",[1]; [29],60
same,Wheat plant response rating,[1]; [30],50
same,"Plant response rating, Oat, Wild",[2]; [29],90
same,"Oat, Wild plant response rating",[2]; [30],40
same,"Plant response rating, Rice (Flood)",[3],10
same,"Plant response rating, Horseweed",[4]; [31],70
same,"Plant response rating, Horseweed",[4]; [32],90
same,"Plant response rating, Galium",[5]; [31],100
same,"Plant response rating, Galium",[5]; [32],100
same,"Plant response rating, Soybean",[6]; [29],100
same,Soybean plant response rating,[6]; [30],50
same,"Plant response rating, Kochia",[7]; [29],100
same,Kochia plant response rating,[7]; [30],90
same,"Plant response rating, Foxtail, Green",[8]; [31],50
same,"Plant response rating, Foxtail, Green",[8]; [32],90
same,"Plant response rating, Soybean",[9]; [31],100
same,"Plant response rating, Soybean",[9]; [32],100
same,"Plant response rating, Ragweed",[10]; [29],50
same,Ragweed plant response rating,[10]; [30],40
same,pest or weed control at 125 g/ha,[11]; [33],50%
same,pest or weed control at 500 g/ha,[11]; [32],100%
same,"Plant response rating, Ryegrass, Italian",[12]; [31],50
same,"Plant response rating, Ryegrass, Italian",[12]; [32],80
same,"Plant response rating, Corn",[13]; [29],20
same,Corn plant response rating,[13]; [30],10
same,"Plant response rating, Sedge, Umbrella (Flood)",[14],98
same,"Plant response rating, Ryegrass, Italian",[15]; [29],100
same,"Ryegrass, Italian plant response rating",[15]; [30],90
same,"Plant response rating, Ducksalad (Flood)",[16],98
same,"Plant response rating, Ragweed",[17]; [31],70
same,"Plant response rating, Ragweed",[17]; [32],90
same,"Plant response rating, Barnyardgrass",[18]; [31],40
same,"Plant response rating, Barnyardgrass",[18]; [32],90
same,"Plant response rating, Kochia",[19]; [31],70
same,"Plant response rating, Kochia",[19]; [32],100
same,"Plant response rating, Barnyardgrass (Flood)",[20],35
same,"Plant response rating, Pigweed, Palmer",[21]; [31],100
same,"Plant response rating, Pigweed, Palmer",[21]; [32],100
same,"Corn plant response rating (crop injury, 0 = no effect, 100 = complete kill) at 125 g/ha",[22]; [33],70%
same,"Corn plant response rating (crop injury, 0 = no effect, 100 = complete kill) at 500 g/ha",[22]; [32],80%
same,"Plant response rating, Foxtail, Green",[23]; [29],100
same,"Foxtail, Green plant response rating",[23]; [30],100
same,"Plant response rating, Barnyardgrass",[24]; [29],100
same,Barnyardgrass plant response rating,[24]; [30],80
same,"Plant response rating, Oat, Wild",[25]; [31],30
same,"Plant response rating, Oat, Wild",[25]; [32],90
same,"Plant response rating, Wheat",[26]; [31],20
same,"Plant response rating, Wheat",[26]; [32],50
same,"Plant response rating, Pigweed, Palmer",[27]; [29],100
same,"Pigweed, Palmer plant response rating",[27]; [30],100
same,"Plant response rating, Blackgrass",[28]; [29],60
same,Blackgrass plant response rating,[28]; [30],40
